Patent US7468270B2, “Probiotic strains, a process for the selection of them, compositions thereof, and their use” (Puleva Biotech, S.A., priority 2003, dated 2008)

Test system: Salmonella typhmurium and Escherichia coli
Test: Production of antimicrobial metabolites, agar well diffusion assay
Format: cell-based
Conditions: dilution of each metabolic acid at pH 4.5; data not shown
Procedure: The probiotic strains of this invention were assessed for their capability to produce antimicrobial metabolites using an agar well diffusion assay. MRS agar plates containing 10^6 cfu/ml of different pathogenic bacteria strain (Salmonella typhmurium and Escherichia coli) were prepared. Wells, with a diameter of 5 mm, where then cut in the agar using a sterile cork-borer. Then, 50 μl of a 2 fold concentrate supernatant of each probiotic strain culture were added to the wells and allowed to diffuse into the agar during a 2 hours preincubation period at 4° C., followed by aerobic incubation of the plates at 37° C. for 16-18 hours. The antimicrobial activity of each supernatant was considered high if the diameter of the inhibition hallo for both pathogenic bacteria strains was >12, moderate between 8 and 12, and slight <8 (FIG. 11)
Moreover, it was also tested if the antimicrobial activity of the supernatants was due to a antimicrobial substance or to the production of metabolic acids. […] It was also tested the antimicrobial capabilities of supernatants obtained from bacterial cultures using glucose or lactose as a carbohydrate source.

Row | SMILES | Inhibition of growth of Salmonella or E. coli by a dilution of metabolic acid
1 | CC(=O)O [acetic] | None of these situations inhibited the growth
2 | CCCC(=O)O [butyric, butyric acid] | None of these situations inhibited the growth
